pEC50: −log10 of the molar value.
Molecular target: T1, human TLR7 (Homo sapiens, UniProt Q9NYK1)
T1 construct: host or cells: HEK-Blue TLR7 cells (engineered human embryonic kidney cells)
T1 sequence (Q9NYK1 27-1049): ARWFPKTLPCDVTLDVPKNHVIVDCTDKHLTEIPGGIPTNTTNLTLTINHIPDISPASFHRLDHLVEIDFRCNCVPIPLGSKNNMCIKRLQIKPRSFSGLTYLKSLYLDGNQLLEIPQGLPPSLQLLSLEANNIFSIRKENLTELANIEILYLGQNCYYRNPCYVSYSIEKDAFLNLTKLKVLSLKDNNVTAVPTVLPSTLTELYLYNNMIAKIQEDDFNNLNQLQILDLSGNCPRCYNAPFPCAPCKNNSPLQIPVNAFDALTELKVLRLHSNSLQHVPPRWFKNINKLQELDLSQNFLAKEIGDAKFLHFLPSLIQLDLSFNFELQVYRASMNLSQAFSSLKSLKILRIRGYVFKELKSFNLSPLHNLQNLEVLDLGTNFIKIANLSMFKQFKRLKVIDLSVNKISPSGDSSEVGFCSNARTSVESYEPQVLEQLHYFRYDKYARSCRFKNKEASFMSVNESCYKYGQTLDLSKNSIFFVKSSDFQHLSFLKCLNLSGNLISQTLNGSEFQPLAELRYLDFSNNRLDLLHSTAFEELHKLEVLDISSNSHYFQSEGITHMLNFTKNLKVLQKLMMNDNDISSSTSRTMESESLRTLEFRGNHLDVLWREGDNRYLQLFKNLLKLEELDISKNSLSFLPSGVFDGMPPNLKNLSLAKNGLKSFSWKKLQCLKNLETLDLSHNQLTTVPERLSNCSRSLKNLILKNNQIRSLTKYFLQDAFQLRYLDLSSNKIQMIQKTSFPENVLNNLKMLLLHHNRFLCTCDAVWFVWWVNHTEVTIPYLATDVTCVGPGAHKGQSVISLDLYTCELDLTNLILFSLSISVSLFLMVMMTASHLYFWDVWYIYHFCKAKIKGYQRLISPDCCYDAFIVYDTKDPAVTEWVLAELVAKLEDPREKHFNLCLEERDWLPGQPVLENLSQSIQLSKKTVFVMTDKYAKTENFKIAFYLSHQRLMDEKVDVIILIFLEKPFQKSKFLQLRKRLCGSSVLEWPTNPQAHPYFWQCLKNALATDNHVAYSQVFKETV
Assay: Human TLR7 agonist activity assay (HEK-Blue TLR7 SEAP reporter)
Type: cell-based
Conditions: HEK-Blue TLR7 cells, 18 h treatment, average where assay performed multiple times, read-out: hTLR7 Agonism EC50
Protocol: This procedure describes a method for assaying human TLR7 (hTLR7) agonist activity of the compounds disclosed in this specification.
HEK-Blue™ TLR7 cells were added to each well of a 384-well tissue-culture plate (15,000 cells per well) and incubated 16-18 h at 37° C., 5% CO2. Compounds (100 nl) were dispensed into wells containing the HEK-Blue™ TLR cells and the treated cells were incubated at 37° C., 5% CO2. After 18 h treatment ten microliters of freshly-prepared Quanti-Blue™ reagent (Invivogen) was added to each well, incubated for 30 min (37° C., 5% CO2) and SEAP levels measured using an Envision plate reader (OD=620 nm). The half maximal effective concentration values (EC50; compound concentration which induced a response halfway between the assay baseline and maximum) were calculated.

Compound | pEC50
CCC[C@@H](CCO)Nc1nc(N)nc2cnn(Cc3ncc(C4CCN(Cc5ncn(C)n5)CC4)cc3OC)c12 [Compound 204, (3S)-3-({5-amino-1-[(3-methoxy-5-{1-[(1-methyl-1H-1,2,4-triazol-3-yl)methyl]piperidin-4-yl}pyridin-2-yl)methyl]-1H-pyrazolo[4,3-d]pyrimidin-7-yl}amino)hexan-1-ol] | 7.04
COc1cc(C2CCN(C3CCOCC3)CC2)cnc1Cn1ncc2nc(N)nc(NCc3noc(C)n3)c21 [Compound 200, 1-({3-methoxy-5-[1-(oxan-4-yl)piperidin-4-yl]pyridin-2-yl}methyl)-N7-[(5-methyl-1,2,4-oxadiazol-3-yl)methyl]-1H-pyrazolo[4,3-d]pyrimidine-5,7-diamine] | 6.93
CCC[C@@H](CCO)Nc1nc(N)nc2cnn(Cc3ncc(C4CCN(C5CCNCC5)CC4)cc3OC)c12 [Compound 214, (3S)-3-([5-amino-1-[(5-{[1,4′-bipiperidine]-4-yl}-3-methoxypyridin-2-yl)methyl]-1H-pyrazolo[4,3-d]pyrimidin-7-yl}amino)hexan-1-ol] | 6.50
CCCCNc1nc(N)nc2cnn(Cc3ccc(C4CCNCC4)cc3OC)c12 [Compound 160, N7-butyl-1-{[2-methoxy-4-(piperidin-4-yl)phenyl]methyl}-1H-pyrazolo[4,3-d]pyrimidine-5,7-diamine] | 7.89
CCC[C@@H](CCO)Nc1nc(N)nc2c(C)nn(Cc3cnc(C4CCN(C5CCOCC5)CC4)cc3OC)c12 [Compound 222, (3S)-3-{[5-amino-1-({4-methoxy-6-[1-(oxan-4-yl)piperidin-4-yl]pyridin-3-yl}methyl)-3-methyl-1H-pyrazolo[4,3-d]pyrimidin-7-yl]amino}hexan-1-ol] | 6.77
CCC[C@@H](CCO)Nc1nc(N)nc2c(C)nn(Cc3ncc(C4CCN(C5CCOCC5)CC4)cc3OC)c12 [Compound 215, (3S)-3-{[5-amino-1-({3-methoxy-5-[1-(oxan-4-yl)piperidin-4-yl]pyridin-2-yl}methyl)-3-methyl-1H-pyrazolo[4,3-d]pyrimidin-7-yl]amino}hexan-1-ol] | 7.53

The remaining molecules from weak to strong by pEC50, led by results:

pEC50 | Compound
5.81 | CCC[C@@H](CCO)Nc1nc(N)nc2cnn(Cc3ccc(C4CCN(C5CCOCC5)CC4)nc3)c12 [Compound 216, (3S)-3-{[5-amino-1-({6-[1-(oxan-4-yl)piperidin-4-yl]pyridin-3-yl}methyl)-1H-pyrazolo[4,3-d]pyrimidin-7-yl]amino}hexan-1-ol]
7.13 | CCC[C@@H](CCO)Nc1nc(N)nc2cnn(Cc3ncc(C4CCN(CCS(C)(=O)=O)CC4)cc3OC)c12 [Compound 206, (3S)-3-{[5-amino-1-({5-[1-(2-methanesulfonylethyl)piperidin-4-yl]-3-methoxypyridin-2-yl}methyl)-1H-pyrazolo[4,3-d]pyrimidin-7-yl]amino}hexan-1-ol]
7.25 | CCC[C@@H](CCO)Nc1nc(N)nc2cnn(Cc3ncc(C4CCN(C5CCN(C)CC5)CC4)cc3OC)c12 [Compound 213, (3S)-3-({5-amino-1-[(3-methoxy-5-{1′-methyl-[1,4′-bipiperidine]-4-yl}pyridin-2-yl)methyl]-1H-pyrazolo[4,3-d]pyrimidin-7-yl}amino)hexan-1-ol]
7.46 | CCC[C@@H](CCO)Nc1nc(N)nc2cnn(Cc3ccc(C4CN(C5CCOCC5)CCN4)cc3OC)c12 (stereo partly drawn) [Compound 203, (3S)-3-{[5-amino-1-({2-methoxy-4-[4-(oxan-4-yl)piperazin-2-yl]phenyl}methyl)-1H-pyrazolo[4,3-d]pyrimidin-7-yl]amino}hexan-1-ol]
7.91 | CCC[C@@H](CCO)Nc1nc(N)nc2cnn(Cc3ccc(C4CN(CC(C)(C)O)CCN4)cc3OC)c12 (stereo partly drawn) [Compound 209, (3S)-3-{[5-amino-1-({4-[4-(2-hydroxy-2-methylpropyl)piperazin-2-yl]-2-methoxyphenyl}methyl)-1H-pyrazolo[4,3-d]pyrimidin-7-yl]amino}hexan-1-ol]

Reference: patent US20230144824A1, “1H-PYRAZOLO[4,3-d]PYRIMIDINE COMPOUNDS AS TOLL-LIKE RECEPTOR 7 (TLR7) AGONISTS” (BRISTOL-MYERS SQUIBB COMPANY, priority 2020, published 2023)
